Structures can show the parent of a compound that is named as a salt.
Molecular target: human GlyT1c transporter (Homo sapiens (Human), UniProt P48067)
Assay: Radioligand binding assay using recombinant CHO cell membranes expressing human GlyT1
Conditions: human GlyT1c-expressing CHO cell membranes; read-out: radioligand binding Kiapp
Text: 2. Radioligand binding assays using recombinant CHO cell membranes expressing human GlyT1: […]

human GlyT1c transporter, sequence (P48067 whole entry): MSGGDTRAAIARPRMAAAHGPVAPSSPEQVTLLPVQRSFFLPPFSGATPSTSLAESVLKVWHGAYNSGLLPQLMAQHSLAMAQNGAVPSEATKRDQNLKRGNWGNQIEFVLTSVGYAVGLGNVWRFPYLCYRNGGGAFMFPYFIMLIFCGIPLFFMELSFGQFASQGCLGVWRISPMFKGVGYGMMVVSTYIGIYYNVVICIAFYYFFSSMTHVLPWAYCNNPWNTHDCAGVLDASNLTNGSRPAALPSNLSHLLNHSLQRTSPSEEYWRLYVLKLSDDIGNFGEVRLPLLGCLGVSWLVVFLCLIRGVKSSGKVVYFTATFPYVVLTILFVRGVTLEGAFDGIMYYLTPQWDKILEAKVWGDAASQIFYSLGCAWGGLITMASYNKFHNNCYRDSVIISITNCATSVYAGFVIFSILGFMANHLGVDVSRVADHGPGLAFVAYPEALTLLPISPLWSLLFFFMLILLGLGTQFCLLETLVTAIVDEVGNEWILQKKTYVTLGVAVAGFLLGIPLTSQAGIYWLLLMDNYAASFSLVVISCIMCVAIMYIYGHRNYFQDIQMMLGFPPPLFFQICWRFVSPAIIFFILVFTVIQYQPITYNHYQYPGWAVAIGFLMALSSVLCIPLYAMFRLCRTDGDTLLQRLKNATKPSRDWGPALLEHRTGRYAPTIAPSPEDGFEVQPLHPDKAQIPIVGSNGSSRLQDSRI

`NC1CCc2ccc(OCCNS(=O)(=O)CCC3CC3)cc2C1Cc1ccc(Cl)c(Cl)c1` (stereo not shown) [Example 125, N-(2-{[7-Amino-8-(3,4-dichlorobenzyl)-5,6,7,8-tetrahydronaphthalen-2-yl]oxy}ethyl)-2-cyclopropylethanesulfonamide hydrochloride] and `Cc1cc(CS(=O)(=O)NCCOc2ccc3c(c2)C(Cc2ccc(Cl)c(Cl)c2)C(N)CC3)no1` (stereo not shown) [Example 87, N-{2-[7-Amino-8-(3,4-dichloro-benzyl)-5,6,7,8-tetrahydro-naphthalen-2-yloxy]-ethyl}-C-(5-methyl-isoxazol-3-yl)-methanesulfonamide hydrochloride] cannot be ordered by Ki: at most 1 µM for the first, at most 10 µM for the second.

`Cn1cc(S(=O)(=O)NCCOc2ccc3c(c2)C(Cc2cccc(Cl)c2)C(N2CCC2)CC3)cn1` (stereo not shown) [Example 322, 1-Methyl-1H-pyrazole-4-sulfonic acid {2-[7-azetidin-1-yl-8-(3-chloro-benzyl)-5,6,7,8-tetrahydro-naphthalen-2-yloxy]-ethyl}-amide hydrochloride] and `COc1cccc(CC2c3cc(OCCNS(=O)(=O)c4cn(C)cn4)ccc3CCC2N2CCCC2)c1` (stereo not shown) [Example 164, N-(2-{[8-(3-Methoxybenzyl)-7-(pyrrolidin-1-yl)-5,6,7,8-tetrahydronaphthalen-2-yl]oxy}ethyl)-1-methyl-1H-imidazole-4-sulfonamide hydrochloride] cannot be ordered by Ki: at most 0.01 µM for the first, at most 0.01 µM for the second.

`CCNC1CCc2ccc(OCCNS(=O)(=O)CC3CC3)cc2C1Cc1cccc(Cl)c1` (stereo not shown) [Example 307, N-{2-[8-(3-Chloro-benzyl)-7-ethylamino-5,6,7,8-tetrahydro-naphthalen-2-yloxy]-ethyl}-C-cyclopropyl-methanesulfonamide hydrochloride] and `CCOC(=O)NC1CCc2ccc(OCCN(C)S(=O)(=O)CC3CC3)cc2C1Cc1cccc(Cl)c1` (stereo not shown) [Example 290, {1-(3-Chloro-benzyl)-7-[2-(cyclopropylmethanesulfonyl-methyl-amino)-ethoxy]-1,2,3,4-tetrahydro-naphthalen-2-yl}-carbamic acid ethyl ester] cannot be ordered by Ki: at most 0.01 µM for the first, at most 10 µM for the second.

`Cn1cnc(S(=O)(=O)NCCOc2ccc3c(c2)C(Cc2cc(F)cc(Cl)c2)C(N2CCC2)CC3)c1` (stereo not shown) [Example 160, N-(2-{[7-(Azetidin-1-yl)-8-(3-chloro-5-fluorobenzyl)-5,6,7,8-tetrahydronaphthalen-2-yl]oxy}ethyl)-1-methyl-1H-imidazole-4-sulfonamide(2E)-but-2-enedioate] and `Cn1cnc(S(=O)(=O)NCCOc2ccc3c(c2)C(Cc2ccccc2Cl)C(N2CCCC2)CC3)c1` (stereo not shown) [Example 315, 1-Methyl-1H-imidazole-4-sulfonic acid {2-[8-(2-chloro-benzyl)-7-pyrrolidin-1-yl-5,6,7,8-tetrahydro-naphthalen-2-yloxy]-ethyl}-amide hydrochloride] cannot be ordered by Ki: at most 0.01 µM for the first, at most 1 µM for the second.

`Cn1cnc(S(=O)(=O)NCc2ccc3c(c2)C(Cc2ccccc2)C(N2CCC2)CC3)c1` (stereo not shown) [Example 248, N-{[7-(Azetidin-1-yl)-8-benzyl-5,6,7,8-tetrahydronaphthalen-2-yl]methyl}-1-methyl-1H-imidazole-4-sulfonamide] and `Cn1cc(S(=O)(=O)NCc2ccc3c(c2)C(Cc2ccccc2)C(N2CCC2)CC3)cn1` (single isomer, unassigned; enantiomer 1) [Example 254, Enantiomer 1 of N-{[7-(azetidin-1-yl)-8-benzyl-5,6,7,8-tetrahydronaphthalen-2-yl]methyl}-1-methyl-1H-pyrazole-4-sulfonamide] cannot be ordered by Ki: at most 0.01 µM for the first, at most 0.01 µM for the second.

`CNC1CCc2ccc(CNS(=O)(=O)C3CCC3)cc2C1Cc1ccccc1` (stereo not shown) [Example 188, N-{[8-Benzyl-7-(methylamino)-5,6,7,8-tetrahydronaphthalen-2-yl]methyl}cyclobutanesulfonamide hydrochloride] and `NC1CCc2ccc(CNS(=O)(=O)C3CCC3)cc2C1Cc1cccc(F)c1` (stereo not shown) [Example 184, N-{[7-Amino-8-(3-fluorobenzyl)-5,6,7,8-tetrahydronaphthalen-2-yl]methyl}cyclobutanesulfonamide hydrochloride] cannot be ordered by Ki: at most 0.1 µM for the first, at most 0.1 µM for the second.

`CCCS(=O)(=O)NCCCc1ccc2c(c1)C(Cc1ccc(F)c(F)c1)C(NCC)CC2` (stereo not shown) [Example 225, N-{3-[8-(3,4-Difluorobenzyl)-7-(ethylamino)-5,6,7,8-tetrahydronaphthalen-2-yl]propyl}propane-1-sulfonamide trifluoroacetate] and `CCCS(=O)(=O)NCCCc1ccc2c(c1)C(Cc1ccc(F)c(F)c1)C(N)CC2` (stereo not shown) [Example 206, N-{3-[7-Amino-8-(3,4-difluoro-benzyl)-5,6,7,8-tetrahydronaphthalen-2-yl]propyl}propane-1-sulfonamide hydrochloride] cannot be ordered by Ki: at most 0.1 µM for the first, at most 0.1 µM for the second.

`O=S(=O)(CC1CC1)NCCOc1ccc2c(c1)C(Cc1ccccc1)C(N1CCC1)CC2` (single isomer, unassigned; (-)) [Example 143, (−)-N-(2-(7-(azetidin-1-yl)-8-benzyl-5,6,7,8-tetrahydronaphthalen-2-yloxy)ethyl)-1-cyclopropylmethanesulfonamide] and `O=S(=O)(CC1CC1)NCCOc1ccc2c(c1)C(Cc1ccc(Cl)c(Cl)c1)C(N1CCC(F)C1)CC2` (stereo not shown) [Example 134, 1-Cyclopropyl-N-[2-({8-(3,4-dichlorobenzyl)-7-[3-fluoropyrrolidin-1-yl]-5,6,7,8-tetrahydronaphthalen-2-yl}oxy)ethyl]methanesulfonamide] cannot be ordered by Ki: at most 0.01 µM for the first, at most 1 µM for the second.

`CCCS(=O)(=O)N(C)Cc1ccc2c(c1)C(Cc1ccccc1)C(NC)CC2` (stereo not shown) [Example 275, N-{[8-Benzyl-7-(methylamino)-5,6,7,8-tetrahydronaphthalen-2-yl]methyl}-N-methylpropane-1-sulfonamide trifluoroacetate] and `CNC1CCc2ccc(CNS(=O)(=O)C3CCC3)cc2C1Cc1ccccc1` (single isomer, unassigned; enantiomer 1) [Example 193, Enantiomer 1 of N-{[8-benzyl-7-(methylamino)-5,6,7,8-tetrahydronaphthalen-2-yl]methyl}cyclobutanesulfonamide hydrochloride] cannot be ordered by Ki: at most 0.1 µM for the first, at most 0.01 µM for the second.

`CCCS(=O)(=O)NCCCc1ccc2c(c1)C(Cc1cccc(Cl)c1)C(NC)CC2` (stereo not shown) [Example 308, Propane-1-sulfonic acid {3-[8-(3-chloro-benzyl)-7-methylamino-5,6,7,8-tetrahydronaphthalen-2-yl]-propyl}-amide hydrochloride] and `CCCS(=O)(=O)NCCCc1ccc2c(c1)C(Cc1cccc(Cl)c1)C(N)CC2` (stereo not shown) [Example 297, Propane-1-sulfonic acid {3-[7-amino-8-(3-chloro-benzyl)-5,6,7,8-tetrahydro-naphthalen-2-yl]-propyl}-amide hydrochloride] cannot be ordered by Ki: at most 0.01 µM for the first, at most 0.1 µM for the second.

`Cc1nc(S(=O)(=O)NCCOc2ccc3c(c2)C(Cc2cccc(Cl)c2)C(N)CC3)cn1C` (stereo not shown) [Example 316, 1,2-Dimethyl-1H-imidazole-4-sulfonic acid {2-[7-amino-8-(3-chloro-benzyl)-5,6,7,8-tetrahydro-naphthalen-2-yloxy]-ethyl}-amide hydrochloride] and `Cn1cnc(S(=O)(=O)NCCOc2ccc3c(c2)C(Cc2ccc(Cl)c(Cl)c2)C(N)CC3)n1` (stereo not shown) [Example 104, 1-Methyl-1H-[1,2,4]triazole-3-sulfonic acid {2-[7-amino-8-(3,4-dichloro-benzyl)-5,6,7,8-tetrahydro-naphthalen-2-yloxy]-ethyl}-amide] cannot be ordered by Ki: at most 1 µM for the first, at most 1 µM for the second.

`CCCS(=O)(=O)NCCCc1ccc2c(c1)C(Cc1cccc(F)c1)C(NCC)CC2` (stereo not shown) [Example 219, Propane-1-sulfonic acid {3-[7-ethylamino-8-(3-fluoro-benzyl)-5,6,7,8-tetrahydronaphthalen-2-yl]-propyl}-amide hydrochloride] and `CCCS(=O)(=O)NCCCc1ccc2c(c1)C(Cc1ccccc1Cl)C(NCC)CC2` (stereo not shown) [Example 222, Propane-1-sulfonic acid {3-[8-(2-chloro-benzyl)-7-ethylamino-5,6,7,8-tetrahydronaphthalen-2-yl]-propyl}-amide hydrochloride] cannot be ordered by Ki: at most 0.1 µM for the first, at most 1 µM for the second.

`CCCS(=O)(=O)N1CC(COc2ccc3c(c2)C(Cc2ccccc2)C(N)CC3)C1` (stereo not shown) [Example 292, 1-Benzyl-7-[1-(propane-1-sulfonyl)-azetidin-3-ylmethoxy]-1,2,3,4-tetrahydro-naphthalen-2-ylamine hydrochloride] and `Cn1cc(S(=O)(=O)NCc2ccc3c(c2)C(Cc2ccccc2)C(N)CC3)cn1` (stereo not shown) [Example 172, N-[(7-Amino-8-benzyl-5,6,7,8-tetrahydronaphthalen-2-yl)methyl]-1-methyl-1H-pyrazole-4-sulfonamide hydrochloride] cannot be ordered by Ki: at most 1 µM for the first, at most 0.01 µM for the second.

`CNC1CCc2ccc(OCCNS(=O)(=O)c3ccn(C)c3)cc2C1Cc1cc(F)cc(F)c1` (single isomer, unassigned; enantiomer 2) [Example 242, Enantiomer 2 of N-(2-{[8-(3,5-difluorobenzyl)-7-(methylamino)-5,6,7,8-tetrahydronaphthalen-2-yl]oxy}ethyl)-1-methyl-1H-pyrrole-3-sulfonamide hydrochloride] and `CNC1CCc2ccc(OCCNS(=O)(=O)c3cn(C)cn3)cc2C1Cc1ccccc1Cl` (stereo not shown) [Example 303, 1-Methyl-1H-imidazole-4-sulfonic acid {2-[8-(2-chloro-benzyl)-7-methylamino-5,6,7,8-tetrahydro-naphthalen-2-yloxy]-ethyl}-amide hydrochloride] cannot be ordered by Ki: at most 0.01 µM for the first, at most 0.1 µM for the second.

`NC1CCc2ccc(CCCNS(=O)(=O)CC3CC3)cc2C1Cc1cccc(F)c1` (stereo not shown) [Example 210, N-{3-[7-Amino-8-(3-fluorobenzyl)-5,6,7,8-tetrahydronaphthalen-2-yl]propyl}-1-cyclopropylmethanesulfonamide hydrochloride] and `CCCS(=O)(=O)NCCc1ccc2c(c1)C(Cc1cccc(Cl)c1)C(N)CC2` (stereo not shown) [Example 304, Propane-1-sulfonic acid {2-[7-amino-8-(3-chloro-benzyl)-5,6,7,8-tetrahydro-naphthalen-2-yl]-ethyl}-amide hydrochloride] cannot be ordered by Ki: at most 0.1 µM for the first, at most 1 µM for the second.

Work on `CN(CCOc1ccc2c(c1)C(Cc1ccccc1)C(N1CCCC1)CC2)S(=O)(=O)c1cn(C)cn1` (stereo not shown) [Example 101, 1-Methyl-1H-imidazole-4-sulfonic acid [2-(8-benzyl-7-pyrrolidin-1-yl-5,6,7,8-tetrahydronaphthalen-2-yloxy)-ethyl]-methyl-amide hydrochloride] yielded a Ki of at most 0.1 µM.
